Where no end group is shown, it is not given here. The star is where a group is joined. For = O=C*

The subject of assay [1] is mast cell degranulation induced by Compound 48/80. As to the kind of experiment: Rat skin model: inhibition of Compound 48/80-induced mast cell degranulation (capillary permeability, trypan blue). It counts as in vivo. To be noted: 0.15 μg Compound 48/80. As for the experimental part: The Rat Skin Model for Determination of Inhibition of Mast Cell Degranulation
In this model, the blood plasma of the experimental rat is labeled with the dye trypan blue. This soluble dye is carried in the bloodstream as a passive marker of plasma itself, and is excluded from live cells. Intact blood vessels, including the capillary system, retain this dye under normal circumstances. A compound, which induces degranulation of mast cells (resulting in leukotriene and histamine release), is injected into the skin to simulate allergen-induced degranulation. In these experiments, Compound 48/80 was used for this purpose. In the events following leukotriene and histamine release, capillary permeability is increased, and plasma, dyed blue, leaks from capillaries and dyes the skin surrounding the injection site blue. The area of bluing is a measure of the amount of Compound 48/80 injected.
A compound can be tested for “anti-leukotriene” and/or “anti-histamine” activity by mixing it with Compound 48/80 prior to injection.
The rat skin model was undertaken and validated. Various peptides were tested at a predetermined dose for anti-leukotriene and/or anti-histamine activity. The dose selected allowed a general comparison to f-Met-Leu-Phe, which was standard compound for comparison.
A “dose response” titration was performed for some compounds and compared with the standard compound. Observing serial decreases in the size areas of capillary permeability using serially smaller doses of the putative inhibitory compound validates the inhibition of leukotriene and/or histamine release observed in the initial predetermined dose test.
Reagents were obtained from Sigma or Aldrich, with the exception of ketamine, a veterinary anaesthetic that was obtained from various veterinary suppliers. The rats used were male Sprague-Dawley breed, 220-240 g at time of purchase from B&K International.
For the rat skin reaction, rats were anaesthetized with 0.25 ml 10 mg/ml ketamine. 1.0 ml trypan blue in saline (sterile filtered) was administered in a tail vein, and the back of the rat was shaved. Four intradermal injection sites per rat were used for test and control injections.
Compound 48/80 was prepared as a 1.5 mg/ml stock solution in saline. […] Serial dilutions in saline to working levels were prepared just prior to injection of each rat.
Peptides were prepared as a 23 mM stock solution in DMSO, and stored at −20° C. between experiments. At the time of use, the frozen stock solutions were thawed, and appropriate aliquots added to dilutions of Compound 48/80, along with appropriate amounts of DMSO, to result in the ratio of 5 μl DMSO to 0.1 ml aqueous Compound 48/80.
For injections, 0.1 ml […], +1/− test compounds were injected intradermally into anaesthetized, dyed, and shaved rats. Following a 15 minute incubation, the rats were sacrificed by cervical dislocation and the back skin was evulsed and placed on a light box. An image of the backlit skin was digitized using a CCD video capture camera and compatible hardware/software. The digitized image was analyzed using a scientific graphics analysis software package, and the areas of capillary permeability (bluing) were integrated and digital values were obtained for further analysis.
A dose response curve was generated using Compound 48/80 at various doses from ca. 0.01 μg through ca. 15 μg. […] A dose of 0.15 μg of Compound 48/80 was selected for conducting further tests.
Several f-Met-Leu peptides were tested for inhibition of induced degranulation in the rat skin model using 100 nanomoles of the test peptide and a dose of 0.15 μg Compound 48/80. An intrinsic zero-peptide-dose 48/80 control was included in each rat for each experiment, and the % of inhibition was expressed in relative terms to this control (0% inhibition). The percent mast cell degranulation produced by 48/80 was also determined.

Assay [2] has as its system induced type II collagen arthritis. The experiment in a line: Induced type II collagen arthritis mouse model. It counts as in vivo. To be noted: HK-X TC or footpad, 0.4 or 4 mg/kg for 20 days; method written in present tense. The source says:
A mouse model is used to evaluate the effect of the compounds of the present invention on the histological, radiographic and clinical appearance of induced type II collagen arthritis. Mice: DBA/1(2) male mice weighing 25 gms (Jackson Laboratories, Bar Harbor, Me. or B&K Universal, Kent Wash.) are used for this work. This strain of mouse is susceptible to CIA by the injection of heterologous type II collagen. Bovine Collagen (BC), Complete Freund's Adjuvant (CFA) and Incomplete Freund's Adjuvant (ICFA) can be obtained from Sigma Chemical. Antigen for immunization is processed in 0.1 M acetic acid and formulated with CFA or ICFA. […] The degree of cellularity and areas of inflammation are quantified by using digitization of histological photomicrographs and applying standard area and point counting techniques as described above. […] The average area of soft tissue (pannus) of the joint is determined by analysis of computer digitized radiographs, along with changes in density of the adjacent hard tissues by comparison with internal standards included with each radiograph. […] The significance of the differences in density and area for control and experimental mice is assessed using paired T-tests at each time point. […] Swelling of hind paws is also quantitated by measuring the thickness of the ankle from the medial to the lateral malledus with a constant tension caliper. […]

For the substance “f-Met-Leu-Phe-Phe (For-MLFF) [Example 9]”, the “inhibition of induced degranulation compared with standard f-Met-Leu-Phe” value in assay [1] (dose response) is recorded as “unexpectedly substantially better than that of the standard compound f-Met-Leu-Phe”. Moreover, the “dose response, inhibition of degranulation induced by Compound 48/80” value in assay [1] (doses of 0 to about 230 nM peptide, FIG. 2 / FIG. 3) is recorded as “Surprisingly remarkable inhibition of degranulation induced by Compound 48/80 was clearly shown”. Besides, the “% Degranulation” value in assay [1] (percent mast cell degranulation produced by 48/80, 100 nanomoles peptide) was 1-3%. For the same substance, the “degree of arthritis” value in assay [2] was “found to reduce the degree of arthritis”.

The values are drawn from patent US20030013658A1, “Small peptides and methods for treatment of asthma and inflammation” (Hisatek, LLC, priority 1997, published 2003).
